{"source": "ChEMBL document CHEMBL4411296", "about": "“Design and development of Isatin-triazole hydrazones as potential inhibitors of microtubule affinity-regulating kinase 4 for the therapeutic management of cell proliferation and metastasis” (Eur J Med Chem, 2019)", "key": {"MCF7 [1]": {"system": "MCF7", "experiment": "Growth inhibition of human MCF7 cells assessed as cell growth at 10 uM after 48 hrs by sulforhodamine B assay relative to control", "assay_type": "functional", "settings": "MCF7, 48 h, read-out: Activity"}, "MDA-MB-231": {"system": "MDA-MB-231", "experiment": "Growth inhibition of human MDA-MB-231 cells assessed as cell growth at 10 uM after 48 hrs by sulforhodamine B assay relative to control", "assay_type": "functional", "settings": "MDA-MB-231, 48 h, read-out: Activity"}, "[2]": {"target": "Calcium/calmodulin-dependent protein kinase type 1 (Homo sapiens) (UniProt Q14012)", "sequence (Q14012 whole entry, looked up)": "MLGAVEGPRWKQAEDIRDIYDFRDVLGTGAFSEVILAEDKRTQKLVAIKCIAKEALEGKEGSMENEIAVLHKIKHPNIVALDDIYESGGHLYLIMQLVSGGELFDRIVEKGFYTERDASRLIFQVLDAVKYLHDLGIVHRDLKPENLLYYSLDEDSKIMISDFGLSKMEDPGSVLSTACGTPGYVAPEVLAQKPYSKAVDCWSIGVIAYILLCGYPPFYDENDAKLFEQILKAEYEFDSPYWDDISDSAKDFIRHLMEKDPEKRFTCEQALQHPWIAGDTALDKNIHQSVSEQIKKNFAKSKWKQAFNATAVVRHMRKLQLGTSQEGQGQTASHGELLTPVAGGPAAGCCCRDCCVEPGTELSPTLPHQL", "experiment": "Inhibition of CAMKI (unknown origin) at 10 uM after 60 mins by ADP-Glo luminescence assay"}, "KM12": {"system": "KM12", "experiment": "Growth inhibition of human KM12 cells assessed as cell growth at 10 uM after 48 hrs by sulforhodamine B assay relative to control", "assay_type": "functional", "settings": "KM12, 48 h, read-out: Activity"}, "NCI-H322M": {"system": "NCI-H322M", "experiment": "Growth inhibition of human NCI-H322M cells assessed as cell growth at 10 uM after 48 hrs by sulforhodamine B assay relative to control", "assay_type": "functional", "settings": "read-out: Activity"}, "[3]": {"target": "Serine/threonine-protein kinase 33 (Homo sapiens) (UniProt Q9BYT3)", "sequence (Q9BYT3 whole entry, looked up)": "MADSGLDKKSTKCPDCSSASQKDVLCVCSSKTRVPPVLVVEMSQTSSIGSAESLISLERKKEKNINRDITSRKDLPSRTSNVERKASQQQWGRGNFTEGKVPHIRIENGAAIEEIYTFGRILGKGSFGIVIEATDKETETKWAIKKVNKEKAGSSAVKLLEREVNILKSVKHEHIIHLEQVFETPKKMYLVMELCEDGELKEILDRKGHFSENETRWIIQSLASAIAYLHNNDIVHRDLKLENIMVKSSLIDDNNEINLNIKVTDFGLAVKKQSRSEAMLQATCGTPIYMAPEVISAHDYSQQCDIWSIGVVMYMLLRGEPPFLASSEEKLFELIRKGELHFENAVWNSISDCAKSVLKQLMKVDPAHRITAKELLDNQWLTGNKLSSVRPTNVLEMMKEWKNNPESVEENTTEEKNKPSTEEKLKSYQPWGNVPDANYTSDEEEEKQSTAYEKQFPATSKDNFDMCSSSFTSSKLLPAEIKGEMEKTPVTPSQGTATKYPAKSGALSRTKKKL", "experiment": "Inhibition of STK33 (unknown origin) at 10 uM after 60 mins by ADP-Glo luminescence assay"}, "IGROV-1": {"system": "IGROV-1", "experiment": "Growth inhibition of human IGROV1 cells assessed as cell growth at 10 uM after 48 hrs by sulforhodamine B assay relative to control", "assay_type": "functional", "settings": "IGROV-1, 48 h, read-out: Activity"}, "[4]": {"target": "Serine/threonine-protein kinase pim-1 (Homo sapiens) (UniProt P11309)", "sequence (P11309 whole entry, looked up)": "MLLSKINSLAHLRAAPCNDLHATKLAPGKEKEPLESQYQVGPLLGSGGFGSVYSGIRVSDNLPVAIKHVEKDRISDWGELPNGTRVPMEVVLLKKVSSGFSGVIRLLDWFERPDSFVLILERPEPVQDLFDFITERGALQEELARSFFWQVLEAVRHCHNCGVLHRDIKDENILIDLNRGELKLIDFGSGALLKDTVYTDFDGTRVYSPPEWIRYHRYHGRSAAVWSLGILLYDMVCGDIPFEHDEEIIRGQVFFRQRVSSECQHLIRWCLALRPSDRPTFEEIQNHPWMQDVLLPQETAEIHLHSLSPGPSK", "experiment": "Inhibition of PIM1 (unknown origin) at 10 uM after 60 mins by ADP-Glo luminescence assay"}, "NCI-H23": {"system": "NCI-H23", "experiment": "Growth inhibition of human NCI-H23 cells assessed as cell growth at 10 uM after 48 hrs by sulforhodamine B assay relative to control", "assay_type": "functional", "settings": "NCI-H23, 48 h, read-out: Activity"}, "SW-620": {"system": "SW-620", "experiment": "Growth inhibition of human SW620 cells assessed as cell growth at 10 uM after 48 hrs by sulforhodamine B assay relative to control", "assay_type": "functional", "settings": "SW-620, 48 h, read-out: Activity"}, "[5]": {"target": "5'-AMP-activated protein kinase catalytic subunit alpha-1 (Homo sapiens) (UniProt Q13131)", "sequence (Q13131 whole entry, looked up)": "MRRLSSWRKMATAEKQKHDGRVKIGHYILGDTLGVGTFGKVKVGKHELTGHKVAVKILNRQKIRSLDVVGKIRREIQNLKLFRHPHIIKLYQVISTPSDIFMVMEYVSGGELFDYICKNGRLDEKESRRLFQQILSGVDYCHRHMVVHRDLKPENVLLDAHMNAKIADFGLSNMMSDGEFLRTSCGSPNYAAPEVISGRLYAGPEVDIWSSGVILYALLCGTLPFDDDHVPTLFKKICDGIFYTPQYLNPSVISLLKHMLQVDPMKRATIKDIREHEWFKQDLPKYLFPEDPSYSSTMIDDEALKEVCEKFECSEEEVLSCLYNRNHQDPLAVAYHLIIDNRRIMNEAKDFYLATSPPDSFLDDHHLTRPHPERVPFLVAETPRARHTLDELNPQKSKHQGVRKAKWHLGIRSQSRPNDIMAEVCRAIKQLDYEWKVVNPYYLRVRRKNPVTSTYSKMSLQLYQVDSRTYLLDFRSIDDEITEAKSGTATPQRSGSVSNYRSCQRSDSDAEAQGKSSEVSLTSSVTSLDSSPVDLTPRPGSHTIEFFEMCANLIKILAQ", "experiment": "Inhibition of AMPKA1 (unknown origin) at 10 uM after 60 mins by ADP-Glo luminescence assay"}, "SF-539": {"system": "SF-539", "experiment": "Growth inhibition of human SF539 cells assessed as cell growth at 10 uM after 48 hrs by sulforhodamine B assay relative to control", "assay_type": "functional", "settings": "SF-539, 48 h, read-out: Activity"}, "CCRF-CEM": {"system": "CCRF-CEM", "experiment": "Growth inhibition of human CCRF-CEM cells assessed as cell growth at 10 uM after 48 hrs by sulforhodamine B assay relative to control", "assay_type": "functional", "settings": "read-out: Activity"}, "UACC-62": {"system": "UACC-62", "experiment": "Growth inhibition of human UACC62 cells assessed as cell growth at 10 uM after 48 hrs by sulforhodamine B assay relative to control", "assay_type": "functional", "settings": "UACC-62, 48 h, read-out: Activity"}, "HCT-15": {"system": "HCT-15", "experiment": "Growth inhibition of human HCT15 cells assessed as cell growth at 10 uM after 48 hrs by sulforhodamine B assay relative to control", "assay_type": "functional", "settings": "HCT-15, 48 h, read-out: Activity"}, "NCI-H460": {"system": "NCI-H460", "experiment": "Growth inhibition of human NCI-H460 cells assessed as cell growth at 10 uM after 48 hrs by sulforhodamine B assay relative to control", "assay_type": "functional", "settings": "NCI-H460, 48 h, read-out: Activity"}, "PC-3": {"system": "PC-3", "experiment": "Growth inhibition of human PC3 cells assessed as cell growth at 10 uM after 48 hrs by sulforhodamine B assay relative to control", "assay_type": "functional", "settings": "PC-3, 48 h, read-out: Activity"}, "SK-MEL-5": {"system": "SK-MEL-5", "experiment": "Growth inhibition of human SK-MEL-5 cells assessed as cell growth at 10 uM after 48 hrs by sulforhodamine B assay relative to control", "assay_type": "functional", "settings": "SK-MEL-5, 48 h, read-out: Activity"}, "RPMI-8226": {"system": "RPMI-8226", "experiment": "Growth inhibition of human RPMI8226 cells assessed as cell growth at 10 uM after 48 hrs by sulforhodamine B assay relative to control", "assay_type": "functional", "settings": "RPMI-8226, 48 h, read-out: Activity"}, "NCI/ADR-RES": {"system": "NCI/ADR-RES", "experiment": "Growth inhibition of human NCI/ADR-RES cells assessed as cell growth at 10 uM after 48 hrs by sulforhodamine B assay relative to control", "assay_type": "functional", "settings": "read-out: Activity"}, "HT-29": {"system": "HT-29", "experiment": "Growth inhibition of human HT-29 cells assessed as cell growth at 10 uM after 48 hrs by sulforhodamine B assay relative to control", "assay_type": "functional", "settings": "HT-29, 48 h, read-out: Activity"}, "A498": {"system": "A498", "experiment": "Growth inhibition of human A498 cells assessed as cell growth at 10 uM after 48 hrs by sulforhodamine B assay relative to control", "assay_type": "functional", "settings": "A498, 48 h, read-out: Activity"}, "COLO 205": {"system": "COLO 205", "experiment": "Growth inhibition of human COLO205 cells assessed as cell growth at 10 uM after 48 hrs by sulforhodamine B assay relative to control", "assay_type": "functional", "settings": "COLO 205, 48 h, read-out: Activity"}, "U-251": {"system": "U-251", "experiment": "Growth inhibition of human U251 cells assessed as cell growth at 10 uM after 48 hrs by sulforhodamine B assay relative to control", "assay_type": "functional", "settings": "U-251, 48 h, read-out: Activity"}, "LOX IMVI": {"system": "LOX IMVI", "experiment": "Growth inhibition of human LOXIMVI cells assessed as cell growth at 10 uM after 48 hrs by sulforhodamine B assay relative to control", "assay_type": "functional", "settings": "read-out: Activity"}, "NCI-H522": {"system": "NCI-H522", "experiment": "Growth inhibition of human NCI-H522 cells assessed as cell growth at 10 uM after 48 hrs by sulforhodamine B assay relative to control", "assay_type": "functional", "settings": "NCI-H522, 48 h, read-out: Activity"}, "MDA-MB-435S": {"system": "MDA-MB-435S", "experiment": "cells", "settings": "Homo sapiens, 48 h", "description": "Antiproliferative activity against human MDA-MB-435S cells assessed as cell viability after 48 hrs by MTT assay"}, "MCF7 [6]": {"system": "MCF7", "experiment": "Induction of apoptosis in human MCF7 cells assessed as necrotic cells at IC50 after 24 hrs by Annexin V-FITC/propidium iodide staining-based flow cytometric analysis (reference value: 0.27%)", "assay_type": "functional"}, "T47D": {"system": "T47D", "experiment": "Growth inhibition of human T47D cells assessed as cell growth at 10 uM after 48 hrs by sulforhodamine B assay relative to control", "assay_type": "functional", "settings": "read-out: Activity"}, "[7]": {"target": "Calcium/calmodulin-dependent protein kinase type II subunit beta (Homo sapiens) (UniProt Q13554)", "sequence (Q13554 whole entry)": "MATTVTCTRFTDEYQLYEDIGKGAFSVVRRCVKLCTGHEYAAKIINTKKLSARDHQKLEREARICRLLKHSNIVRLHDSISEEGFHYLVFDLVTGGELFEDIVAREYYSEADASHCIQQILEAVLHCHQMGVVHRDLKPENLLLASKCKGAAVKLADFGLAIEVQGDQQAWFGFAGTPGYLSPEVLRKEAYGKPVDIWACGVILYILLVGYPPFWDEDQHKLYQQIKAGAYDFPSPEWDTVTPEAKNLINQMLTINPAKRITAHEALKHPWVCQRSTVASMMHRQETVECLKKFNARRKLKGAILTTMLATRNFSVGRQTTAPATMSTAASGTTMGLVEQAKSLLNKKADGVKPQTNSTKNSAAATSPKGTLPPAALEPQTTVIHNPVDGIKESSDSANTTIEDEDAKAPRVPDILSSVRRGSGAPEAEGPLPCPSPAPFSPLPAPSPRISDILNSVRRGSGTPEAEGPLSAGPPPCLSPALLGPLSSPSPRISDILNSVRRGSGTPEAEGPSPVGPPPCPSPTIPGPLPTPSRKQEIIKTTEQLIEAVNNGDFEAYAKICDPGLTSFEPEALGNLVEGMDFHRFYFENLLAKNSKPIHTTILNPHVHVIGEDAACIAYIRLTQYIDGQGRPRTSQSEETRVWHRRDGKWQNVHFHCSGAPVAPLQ", "experiment": "Inhibition of CAMKII (unknown origin) at 10 uM after 60 mins by ADP-Glo luminescence assay"}, "[8]": {"target": "Transcription factor HIVEP2 (Homo sapiens) (UniProt P31629)", "sequence (P31629 whole entry)": "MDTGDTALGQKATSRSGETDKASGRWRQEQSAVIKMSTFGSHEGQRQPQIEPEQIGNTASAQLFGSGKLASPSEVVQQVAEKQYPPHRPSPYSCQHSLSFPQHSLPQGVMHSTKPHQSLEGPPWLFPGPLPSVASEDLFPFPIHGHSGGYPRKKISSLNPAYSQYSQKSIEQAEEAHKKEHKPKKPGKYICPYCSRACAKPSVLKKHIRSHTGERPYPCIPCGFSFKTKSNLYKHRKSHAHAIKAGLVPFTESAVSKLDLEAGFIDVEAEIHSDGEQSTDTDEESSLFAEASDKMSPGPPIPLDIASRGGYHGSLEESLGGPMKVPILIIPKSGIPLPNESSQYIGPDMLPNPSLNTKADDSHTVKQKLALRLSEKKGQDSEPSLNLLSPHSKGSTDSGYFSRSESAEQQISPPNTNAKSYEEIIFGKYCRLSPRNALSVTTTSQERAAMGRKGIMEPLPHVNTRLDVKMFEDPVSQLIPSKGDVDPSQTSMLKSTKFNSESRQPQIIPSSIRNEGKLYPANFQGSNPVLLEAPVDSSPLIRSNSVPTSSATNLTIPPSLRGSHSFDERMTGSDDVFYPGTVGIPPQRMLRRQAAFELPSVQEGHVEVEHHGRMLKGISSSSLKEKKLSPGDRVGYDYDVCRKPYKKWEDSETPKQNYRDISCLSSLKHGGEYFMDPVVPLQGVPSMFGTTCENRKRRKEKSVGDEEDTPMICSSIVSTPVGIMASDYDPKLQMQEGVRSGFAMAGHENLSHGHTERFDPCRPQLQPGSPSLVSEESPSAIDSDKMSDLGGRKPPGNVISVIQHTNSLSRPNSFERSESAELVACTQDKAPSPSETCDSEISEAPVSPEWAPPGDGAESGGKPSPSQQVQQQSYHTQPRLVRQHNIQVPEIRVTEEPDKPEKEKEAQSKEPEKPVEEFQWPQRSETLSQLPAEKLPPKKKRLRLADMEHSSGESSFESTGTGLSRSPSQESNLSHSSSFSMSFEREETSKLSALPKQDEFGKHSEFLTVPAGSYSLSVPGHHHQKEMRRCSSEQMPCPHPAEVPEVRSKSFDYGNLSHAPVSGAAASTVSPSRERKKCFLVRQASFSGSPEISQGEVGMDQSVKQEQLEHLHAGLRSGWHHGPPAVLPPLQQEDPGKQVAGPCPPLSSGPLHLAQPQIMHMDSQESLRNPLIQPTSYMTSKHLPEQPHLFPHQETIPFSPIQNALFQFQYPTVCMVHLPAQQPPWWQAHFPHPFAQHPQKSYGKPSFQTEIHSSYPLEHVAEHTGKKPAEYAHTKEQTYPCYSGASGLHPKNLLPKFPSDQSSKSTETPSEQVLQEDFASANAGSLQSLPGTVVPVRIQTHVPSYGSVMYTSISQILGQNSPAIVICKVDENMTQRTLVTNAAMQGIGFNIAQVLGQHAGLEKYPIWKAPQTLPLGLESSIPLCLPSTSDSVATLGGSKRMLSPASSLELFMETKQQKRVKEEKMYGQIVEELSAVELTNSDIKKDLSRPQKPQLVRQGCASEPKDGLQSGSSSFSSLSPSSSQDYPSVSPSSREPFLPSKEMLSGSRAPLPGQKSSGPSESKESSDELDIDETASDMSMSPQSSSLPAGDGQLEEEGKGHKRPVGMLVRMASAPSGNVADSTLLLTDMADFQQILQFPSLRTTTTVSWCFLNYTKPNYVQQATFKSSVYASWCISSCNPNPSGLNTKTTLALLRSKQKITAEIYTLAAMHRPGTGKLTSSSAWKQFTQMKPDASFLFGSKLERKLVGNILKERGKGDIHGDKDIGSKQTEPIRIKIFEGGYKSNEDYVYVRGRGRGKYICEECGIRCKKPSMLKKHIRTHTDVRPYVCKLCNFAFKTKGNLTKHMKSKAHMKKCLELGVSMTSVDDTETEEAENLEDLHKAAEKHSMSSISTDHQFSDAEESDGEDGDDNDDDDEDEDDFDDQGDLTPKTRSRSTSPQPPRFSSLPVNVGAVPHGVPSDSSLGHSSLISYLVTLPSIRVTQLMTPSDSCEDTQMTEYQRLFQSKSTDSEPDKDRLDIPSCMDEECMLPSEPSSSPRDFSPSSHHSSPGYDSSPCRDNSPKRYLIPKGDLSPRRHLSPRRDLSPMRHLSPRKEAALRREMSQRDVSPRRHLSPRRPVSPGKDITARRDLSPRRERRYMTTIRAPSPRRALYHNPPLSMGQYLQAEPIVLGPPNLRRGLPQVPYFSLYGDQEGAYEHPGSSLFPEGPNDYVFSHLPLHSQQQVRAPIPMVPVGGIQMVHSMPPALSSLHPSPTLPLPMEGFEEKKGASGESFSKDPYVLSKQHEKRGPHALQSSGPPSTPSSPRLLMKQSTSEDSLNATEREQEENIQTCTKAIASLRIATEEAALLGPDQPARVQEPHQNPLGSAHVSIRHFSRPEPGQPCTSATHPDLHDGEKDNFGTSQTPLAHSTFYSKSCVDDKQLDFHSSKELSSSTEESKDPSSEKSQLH", "experiment": "Inhibition of MBP2 (unknown origin) at 10 uM after 60 mins by ADP-Glo luminescence assay"}, "MDA-MB-435": {"system": "MDA-MB-435", "experiment": "Growth inhibition of human MDA-MB-435 cells assessed as cell growth at 10 uM after 48 hrs by sulforhodamine B assay relative to control", "assay_type": "functional", "settings": "MDA-MB-435, 48 h, read-out: Activity"}, "UO-31": {"system": "UO-31", "experiment": "Growth inhibition of human UO31 cells assessed as cell growth at 10 uM after 48 hrs by sulforhodamine B assay relative to control", "assay_type": "functional", "settings": "UO-31, 48 h, read-out: Activity"}, "Hs-578T": {"system": "Hs-578T", "experiment": "Growth inhibition of human Hs 578T cells assessed as cell growth at 10 uM after 48 hrs by sulforhodamine B assay relative to control", "assay_type": "functional", "settings": "read-out: Activity"}}, "note": "Activity calls are given as the source filed them. The calls are words filed in the database; no cut-off is given here.", "data": [{"smiles": "COc1ccc(Cn2cc(C(=O)N/N=C3/C(=O)Nc4c(C)cccc43)nn2)cc1", "values": [{"measurement": "growth at 10 µM", "setting": "MCF7 [1]", "result": 84.9, "unit": "%"}, {"measurement": "growth at 10 µM", "setting": "MDA-MB-231", "result": 51, "unit": "%"}, {"measurement": "inhibition", "setting": "[2]", "result": "inactive"}, {"measurement": "growth at 10 µM", "setting": "KM12", "result": 95.6, "unit": "%"}, {"measurement": "growth at 10 µM", "setting": "NCI-H322M", "result": 89.6, "unit": "%"}, {"measurement": "inhibition", "setting": "[3]", "result": "inactive"}, {"measurement": "growth at 10 µM", "setting": "IGROV-1", "result": 84.8, "unit": "%"}, {"measurement": "inhibition", "setting": "[4]", "result": "inactive"}, {"measurement": "growth at 10 µM", "setting": "NCI-H23", "result": 89.1, "unit": "%"}, {"measurement": "growth at 10 µM", "setting": "SW-620", "result": 57.5, "unit": "%"}, {"measurement": "inhibition", "setting": "[5]", "result": "inactive"}, {"measurement": "growth at 10 µM", "setting": "SF-539", "result": 80.1, "unit": "%"}, {"measurement": "growth at 10 µM", "setting": "CCRF-CEM", "result": 82.8, "unit": "%"}, {"measurement": "growth at 10 µM", "setting": "UACC-62", "result": 74.1, "unit": "%"}, {"measurement": "growth at 10 µM", "setting": "HCT-15", "result": 68, "unit": "%"}, {"measurement": "growth at 10 µM", "setting": "NCI-H460", "result": 73, "unit": "%"}, {"measurement": "growth at 10 µM", "setting": "PC-3", "result": 61.3, "unit": "%"}, {"measurement": "growth at 10 µM", "setting": "SK-MEL-5", "result": 93.8, "unit": "%"}, {"measurement": "growth at 10 µM", "setting": "RPMI-8226", "result": 90, "unit": "%"}, {"measurement": "growth at 10 µM", "setting": "NCI/ADR-RES", "result": 71.2, "unit": "%"}, {"measurement": "growth at 10 µM", "setting": "HT-29", "result": 67.5, "unit": "%"}, {"measurement": "growth at 10 µM", "setting": "A498", "result": 101, "unit": "%"}, {"measurement": "growth at 10 µM", "setting": "COLO 205", "result": 108, "unit": "%"}, {"measurement": "growth at 10 µM", "setting": "U-251", "result": 108, "unit": "%"}, {"measurement": "growth at 10 µM", "setting": "LOX IMVI", "result": 75.3, "unit": "%"}, {"measurement": "growth at 10 µM", "setting": "NCI-H522", "result": 77.5, "unit": "%"}, {"measurement": "IC50", "setting": "MDA-MB-435S", "result": 9.94, "unit": "µM"}, {"measurement": "Activity", "setting": "MCF7 [6]", "result": 0.75, "unit": "%"}, {"measurement": "growth at 10 µM", "setting": "T47D", "result": 81, "unit": "%"}, {"measurement": "inhibition", "setting": "[7]", "result": "inactive"}, {"measurement": "inhibition", "setting": "[8]", "result": "inactive"}, {"measurement": "growth at 10 µM", "setting": "MDA-MB-435", "result": 82, "unit": "%"}, {"measurement": "growth at 10 µM", "setting": "UO-31", "result": 14.8, "unit": "%"}, {"measurement": "growth at 10 µM", "setting": "Hs-578T", "result": 84.1, "unit": "%"}]}]}
